# Data reported in US6472393B1, “Serine protease inhibitors” (Genentech, Inc., priority 1999, dated 2002).
# Assays:
# Type in all cases: biochemical
# [1] = biological target: T1, Tissue Factor/factor VIIa (recombinant human factor VIIa, soluble Tissue Factor (1-219)) (Homo sapiens, UniProt P08709); experiment: Tissue Factor/Factor VIIa antagonist assay (Ki, chromogenic substrate Chromozym-tPA); conditions: read-out: Ki(TFVIIa)
# T1 construct: recombinant human factor VIIa (NB #25942-16); NB #25942-16
# T1 sequence (P08709 213-466 limits assumed): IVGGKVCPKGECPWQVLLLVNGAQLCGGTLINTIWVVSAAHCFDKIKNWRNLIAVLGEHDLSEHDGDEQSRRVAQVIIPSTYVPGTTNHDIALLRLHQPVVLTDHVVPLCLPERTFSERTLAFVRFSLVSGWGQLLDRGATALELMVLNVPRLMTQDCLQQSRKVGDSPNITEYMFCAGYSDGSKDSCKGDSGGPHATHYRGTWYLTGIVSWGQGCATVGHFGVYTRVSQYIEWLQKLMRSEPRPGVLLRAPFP
# T1 sequence (P08709 61-212 limits assumed): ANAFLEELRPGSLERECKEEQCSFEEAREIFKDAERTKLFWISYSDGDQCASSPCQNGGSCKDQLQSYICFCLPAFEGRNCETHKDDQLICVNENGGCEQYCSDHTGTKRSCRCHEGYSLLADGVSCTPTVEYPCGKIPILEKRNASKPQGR
# T1 sequence (P13726 33-251 partner limits assumed): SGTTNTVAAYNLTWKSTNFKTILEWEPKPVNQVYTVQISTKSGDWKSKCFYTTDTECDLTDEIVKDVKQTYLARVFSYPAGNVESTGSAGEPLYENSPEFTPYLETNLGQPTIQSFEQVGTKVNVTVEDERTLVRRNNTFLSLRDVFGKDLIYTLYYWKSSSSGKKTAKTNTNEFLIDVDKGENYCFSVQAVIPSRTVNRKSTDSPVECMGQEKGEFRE
# Experimental: Tissue Factor/Factor VIIa Antagonist Assay
# This procedure can be used to determine the constant of inhibition (Ki) for a sample compound of the invention.
# 1. Prepare a solution of 2 μg/mL (90 nM) tissue factor and 1.5 μg/mL (30 nM) factor VIIa in assay buffer with CaCl2.
# 2. Incubate for 15 minutes at room temperature.
# 3. Add 50 μL sample to each well.
# 4. Add 50 μL tissue factor/factor VIIa solution to each well.
# 5. Incubate for 15 minutes at room temperature with gentle agitation.
# 6. Add 50 μL substrate to each well.
# 7. Agitate plate for 20-25 sec.
# 8. Monitor absorbance at 405 nm every 10 sec for a total of 5 minutes at room temperature.
# 9. Calculate Vmax over 10 points.
# (§1) Assay—Enzyme, Substrate and Final Concentrations
# human Plasma Kallikrein = biological target: T2, human Plasma Kallikrein (Homo sapiens, UniProt P03952); experiment: Plasma Kallikrein assay (Ki, chromogenic substrate S-2302)
# T2 construct: Factor Xa, Thrombin, and Plasma Kallikrein Assays
# T2 sequence (P03952 391-638 limits assumed): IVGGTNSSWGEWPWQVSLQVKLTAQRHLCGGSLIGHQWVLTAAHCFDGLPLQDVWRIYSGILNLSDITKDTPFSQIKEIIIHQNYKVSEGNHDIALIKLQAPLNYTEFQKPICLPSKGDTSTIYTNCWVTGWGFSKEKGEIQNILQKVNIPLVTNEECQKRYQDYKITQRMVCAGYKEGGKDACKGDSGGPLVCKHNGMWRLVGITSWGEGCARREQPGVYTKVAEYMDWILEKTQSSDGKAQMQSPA
# T2 sequence (P03952 20-390 limits assumed): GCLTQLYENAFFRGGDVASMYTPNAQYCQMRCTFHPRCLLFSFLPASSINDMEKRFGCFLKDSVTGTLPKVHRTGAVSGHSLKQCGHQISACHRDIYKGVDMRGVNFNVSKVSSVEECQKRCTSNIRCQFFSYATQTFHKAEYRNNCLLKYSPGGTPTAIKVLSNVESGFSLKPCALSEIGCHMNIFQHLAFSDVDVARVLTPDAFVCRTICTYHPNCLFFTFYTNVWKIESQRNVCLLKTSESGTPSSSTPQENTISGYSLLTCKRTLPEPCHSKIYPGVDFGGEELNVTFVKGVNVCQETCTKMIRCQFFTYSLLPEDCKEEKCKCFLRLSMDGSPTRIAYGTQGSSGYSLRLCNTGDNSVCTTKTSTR
# Experimental: (§2) Factor Xa, Thrombin, and Plasma Kallikrein Assays
# (§3) These procedures can be used to determine the constant of inhibition (Ki) for a sample compound of the invention.
# (§4) 1. Add 50 μL sample to each well.
# (§5) 2. Add 50 μL appropriately diluted coagulation factor to each well.
# (§6) 3. Incubate for 5 minutes at room temperature with gentle agitation.
# (§7) 4. Add 50 μL appropriately diluted substrate to each well.
# (§8) 5. Agitate plate for 20-25 sec.
# (§9) 6. Monitor absorbance at 405 nm every 10 sec for a total of 5 minutes at room temperature.
# (§10) 7. Calculate Vmax over 10 points.
# as §1
# human Thrombin = biological target: T3, human Thrombin (Homo sapiens, UniProt P00734); experiment: Thrombin assay (Ki, chromogenic substrate S-2366); conditions: read-out: Ki(IIa)
# T3 construct: rapidly converts prothrombin to thrombin
# Experimental: as §2, §3, §4, §5, §6, §7, §8, §9, §10, §1
# human Factor Xa = biological target: T4, human Factor Xa (Homo sapiens, UniProt P00742); experiment: Factor Xa assay (Ki, chromogenic substrate S-2222)
# T4 construct: This complex converts factor X to Xa
# T4 sequence (P00742 235-488 limits assumed): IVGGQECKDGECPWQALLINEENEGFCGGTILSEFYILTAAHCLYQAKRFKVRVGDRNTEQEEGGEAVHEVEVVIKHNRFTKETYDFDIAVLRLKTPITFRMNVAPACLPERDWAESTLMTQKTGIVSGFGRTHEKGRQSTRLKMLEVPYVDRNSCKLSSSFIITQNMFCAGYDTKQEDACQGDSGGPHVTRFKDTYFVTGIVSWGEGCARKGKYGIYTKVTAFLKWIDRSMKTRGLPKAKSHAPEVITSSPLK
# T4 sequence (P00742 41-179 limits assumed): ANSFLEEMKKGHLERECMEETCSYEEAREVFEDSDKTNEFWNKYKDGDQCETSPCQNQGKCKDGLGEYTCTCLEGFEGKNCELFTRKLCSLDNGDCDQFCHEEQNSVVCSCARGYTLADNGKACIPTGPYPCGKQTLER
# Experimental: as §2, §3, §4, §5, §6, §7, §8, §9, §10, §1
Ki [1] [nM],Ki (human Plasma Kallikrein) [nM],Ki (human Thrombin) [nM],Ki (human Factor Xa) [nM],SMILES
7,,,,CCOc1cc(OCC)cc(C(Nc2ccc(C(=N)N)cc2)C(=O)NS(=O)(=O)c2ccccc2)c1 (stereo not shown)
5,2,,,CCOc1ccc(C(Nc2ccc(C(=N)N)cc2)C(=O)NS(=O)(=O)c2ccccc2)cc1OCC (stereo not shown)
,1,,,CCCS(=O)(=O)NCC(Nc1ccc(C(=N)N)cc1)c1cc(OCC)c(OCC(C)C)cc1NS(=O)(=O)CCC (stereo not shown)
,1,,,CCCS(=O)(=O)NCC(Nc1ccc(C(=N)N)cc1)c1cc(OCC)c(OC(C)C)cc1NS(C)(=O)=O (stereo not shown)
,,16,,COc1cc(C(CNS(=O)(=O)c2cccs2)Nc2ccc(C(=N)N)cc2)ccc1OCc1ccccc1 (stereo not shown) [4-[1-(4-Benzyloxy-3-methoxy-phenyl)-2-(thiophene-2-sulfonylamino)-ethylamino]-benzamidine]
4,,,,CCCS(=O)(=O)NCC(Nc1ccc(C(=N)N)cc1)c1cc(OCC)c(OCc2ccccc2)cc1NS(C)(=O)=O (stereo not shown) [4-[1-(4-Benzyloxy-5-ethoxy-2-methanesulfonylamino-phenyl)-2-(propane-1-sulfonylamino)-ethylamino]benzamidine]
,,1,,COc1cc(C(CNS(=O)(=O)c2ccccc2)Nc2ccc(C(=N)N)cc2)ccc1OC(CCl)c1ccccc1 (stereo not shown) [4-{2-benzenesulfonylamino-1-[4-(2-chloro-1-phenyl-ethoxy)-3-methoxy-phenyl]-ethylamino}-benzamidine]
3,,113,898,"CCOc1cc(C(Nc2ccc(C(=N)N)cc2)C(=O)NS(=O)(=O)c2ccccc2)ccc1OC(C)C (stereo not shown) [4-{2-benzenesulfonylamino-1-[4-isopropoxy,5-ethoxy)-phenyl]-2-oxo-ethylamino}benzamidine]"
,,,624,"CCCCS(=O)(=O)NC(=O)C(Nc1ccc(C(=N)N)cc1)c1ccc(OC(C)C)c(OCC)c1 (stereo not shown) [4-{2-butylsulfonylamino-1-[4-isopropoxy,5-ethoxy)-phenyl]-2-oxo-ethylamino}benzamidine]"
,11,,565,"CCOc1cc(C(Nc2ccc(C(=N)N)cc2)C(=O)NS(=O)(=O)CC)ccc1OC(C)C (stereo not shown) [4-{2-ethylsulfonylamino-1-[4-isopropoxy,5-ethoxy)-phenyl]-2-oxo-ethylamino}benzamidine]"
,,1,140,CCCS(=O)(=O)NCC(Nc1ccc(C(=N)N)cc1)c1ccc(OC(CCl)c2ccccc2)c(OC)c1 (stereo not shown) [4-{2-propanesulfonylamino-1-[4-(2-chloro-1-phenyl-ethoxy)-3-methoxy-phenyl]-ethylamino}-benzamidine]
